Test [1] deals with FGFR4-translocated Ba/F3 cells. As to the kind of experiment: cells. The settings on record: Mus musculus, BaF3, 72 h, read-out: IC50 proliferation, FGFR4 Ba/F3 cells. The protocol: (§1) Cell proliferation and viability were evaluated in parental Ba/F3 cells and TEL-FGFR1-4/FGFR mutation-translocated Ba/F3 cell lines.
For a further test, the system named is parental Ba/F3 cells. Briefly: cells. Conditions: Mus musculus, BaF3, 72 h, read-out: IC50 proliferation, parental Ba/F3 cells. The protocol: as §1
For test [2] the following is noted: Phase II FIGHT-202, patients; cited from earlier work.
For a further test, the system named is FGFR1. The settings on record: printed as potency 'toward FGFRs' in the FGFR1 comparison; cited from earlier work.

As for `CCN1C(=O)N(c2c(F)c(OC)cc(OC)c2F)Cc2cnc3[nH]c(CN4CCOCC4)cc3c21` [pemigatinib], the IC50 in test [1] came to 0.012 µM. Further, the IC50 in the test with parental Ba/F3 cells is more than 5 µM. Besides, in test [2], the complete responses is listed as 2.8%, the disease control rate is 82.0% and the objective response rate is on record as 35.5%.

Consider `CCN1CCN(c2ccc(Nc3cc(N(C)C(=O)Nc4c(Cl)c(OC)cc(OC)c4Cl)ncn3)cc2)CC1` [infigratinib, 3-(2,6-dichloro-3,5-dimethoxy-phenyl)-1-{6-[4-(4-ethyl-piperazin-1-yl)-phenylamino]-pyrimidin-4-yl}-1-methyl-urea], for which the IC50 in the test with FGFR1 is […].

The record behind these values is PMC9814635 (Communications Chemistry, 2022).
